Patent US8952024B2, “Herbicidal pyrimidone derivatives” (E I du Pont de Nemours and Company, priority 2009, dated 2015)

Assays:
Test in all cases: Test C plant response
Assay type in all cases: in vivo
Conditions in all cases: Postemergence, scale 0 to 100
[1] = test system: oilseed rape (Brassica napus)
How it was run: (§1)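 Efficacy is a visual percent-control score (0 none, 100 complete), judged against controls 14 days after application. Compounds go on in a non-phytotoxic solvent carrier with surfactant. A dash marks a missing result.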

[2] = test system: wild radish (Raphanus raphanistrum)
How it was run: as §1

kochia (Kochia scoparia) = test system: kochia (Kochia scoparia)
How it was run: as §1

[3] = test system: green foxtail (Setaria viridis)
How it was run: as §1

[4] = test system: bluegrass (annual bluegrass, Poa annua)
How it was run: as §1

[5] = test system: field violet (Viola arvensis)
How it was run: as §1

[6] = test system: blackgrass (Alopecurus myosuroides)
How it was run: as §1

[7] = test system: chickweed (common chickweed, Stellaria media)
How it was run: as §1

wild oat (Avena fatua) = test system: wild oat (Avena fatua)
How it was run: as §1

[8] = test system: galium (catchweed bedstraw, Galium aparine)
How it was run: as §1

[9] = test system: wild mustard (Sinapis arvensis)
How it was run: as §1

[10] = test system: deadnettle (henbit deadnettle, Lamium amplexicaule)
How it was run: as §1

[11] = test system: canarygrass (Phalaris minor)
How it was run: as §1

[12] = test system: Italian ryegrass (Lolium multiflorum)
How it was run: as §1

[13] = test system: Russian thistle (Salsola iberica)
How it was run: as §1

[14] = test system: field poppy (Papaver rhoeas)
How it was run: as §1

[15] = test system: winter barley (Hordeum vulgare)
How it was run: as §1

[16] = test system: spring barley (Hordeum vulgare)
How it was run: as §1

[17] = test system: pigweed (Amaranthus retroflexus)
How it was run: as §1

[18] = test system: bromegrass (downy bromegrass, Bromus tectorum)
How it was run: as §1

Cc1ccc(-n2c(-c3ccccc3)ncc(C(=O)C3=C(O)CCCC3=O)c2=O)cc1 [Compound 8]
0: Plant response rating: Canarygrass ([11]; 16 g ai/ha) | Plant response rating: Ryegrass, Italian ([12]; 31 g ai/ha) | Plant response rating: Ryegrass, Italian ([12]; 16 g ai/ha) | Plant response rating: Field Poppy ([14]; 16 g ai/ha) | Plant response rating: Barley, Winter ([15]; 16 g ai/ha) | Plant response rating: Barley, Spring ([16]; 16 g ai/ha)
50: Plant response rating: Bluegrass ([4]; 62 g ai/ha) | Plant response rating: Galium ([8]; 16 g ai/ha)
90: Plant response rating: Oilseed Rape ([1]; 31 g ai/ha) | Plant response rating: Kochia (kochia (Kochia scoparia); 125 g ai/ha) | Plant response rating: Galium ([8]; 62 g ai/ha) | Plant response rating: Galium ([8]; 125 g ai/ha) | Plant response rating: Russian Thistle ([13]; 31 g ai/ha) | Plant response rating: Russian Thistle ([13]; 16 g ai/ha)
98: Plant response rating: Oilseed Rape ([1]; 62 g ai/ha) | Plant response rating: Radish, Wild ([2]; 62 g ai/ha) | Plant response rating: Foxtail, Green ([3]; 125 g ai/ha) | Plant response rating: Chickweed ([7]; 125 g ai/ha) | Plant response rating: Mustard, Wild ([9]; 62 g ai/ha) | Plant response rating: Mustard, Wild ([9]; 125 g ai/ha) | Plant response rating: Deadnettle ([10]; 62 g ai/ha) | Plant response rating: Pigweed ([17]; 62 g ai/ha) | Plant response rating: Pigweed ([17]; 125 g ai/ha)
35: Plant response rating: Blackgrass ([6]; 62 g ai/ha) | Plant response rating: Blackgrass ([6]; 125 g ai/ha) | Plant response rating: Ryegrass, Italian ([12]; 125 g ai/ha) | Plant response rating: Bromegrass, Downy ([18]; 62 g ai/ha)
25: Plant response rating: Bluegrass ([4]; 31 g ai/ha) | Plant response rating: Bromegrass, Downy ([18]; 31 g ai/ha)
75: Plant response rating: Bluegrass ([4]; 125 g ai/ha) | Plant response rating: Galium ([8]; 31 g ai/ha)
80: Plant response rating: Oilseed Rape ([1]; 16 g ai/ha)
20: Plant response rating: Blackgrass ([6]; 16 g ai/ha) | Plant response rating: Oat, Wild (wild oat (Avena fatua); 31 g ai/ha) | Plant response rating: Oat, Wild (wild oat (Avena fatua); 16 g ai/ha) | Plant response rating: Ryegrass, Italian ([12]; 62 g ai/ha) | Plant response rating: Field Poppy ([14]; 31 g ai/ha) | Plant response rating: Barley, Winter ([15]; 31 g ai/ha) | Plant response rating: Barley, Winter ([15]; 62 g ai/ha) | Plant response rating: Barley, Spring ([16]; 62 g ai/ha)
85: Plant response rating: Radish, Wild ([2]; 16 g ai/ha) | Plant response rating: Kochia (kochia (Kochia scoparia); 62 g ai/ha) | Plant response rating: Deadnettle ([10]; 16 g ai/ha)
100: Plant response rating: Oilseed Rape ([1]; 125 g ai/ha) | Plant response rating: Radish, Wild ([2]; 125 g ai/ha) | Plant response rating: Deadnettle ([10]; 125 g ai/ha)
5: Plant response rating: Bluegrass ([4]; 16 g ai/ha) | Plant response rating: Canarygrass ([11]; 31 g ai/ha)
10: Plant response rating: Field Violet ([5]; 16 g ai/ha) | Plant response rating: Canarygrass ([11]; 62 g ai/ha) | Plant response rating: Canarygrass ([11]; 125 g ai/ha) | Plant response rating: Barley, Spring ([16]; 31 g ai/ha) | Plant response rating: Bromegrass, Downy ([18]; 16 g ai/ha)
30: Plant response rating: Blackgrass ([6]; 31 g ai/ha) | Plant response rating: Oat, Wild (wild oat (Avena fatua); 62 g ai/ha) | Plant response rating: Oat, Wild (wild oat (Avena fatua); 125 g ai/ha) | Plant response rating: Barley, Spring ([16]; 125 g ai/ha)
65: Plant response rating: Kochia (kochia (Kochia scoparia); 16 g ai/ha) | Plant response rating: Field Violet ([5]; 31 g ai/ha) | Plant response rating: Field Violet ([5]; 62 g ai/ha) | Plant response rating: Field Violet ([5]; 125 g ai/ha)
95: Plant response rating: Radish, Wild ([2]; 31 g ai/ha) | Plant response rating: Foxtail, Green ([3]; 31 g ai/ha) | Plant response rating: Foxtail, Green ([3]; 16 g ai/ha) | Plant response rating: Foxtail, Green ([3]; 62 g ai/ha) | Plant response rating: Chickweed ([7]; 31 g ai/ha) | Plant response rating: Chickweed ([7]; 16 g ai/ha) | Plant response rating: Chickweed ([7]; 62 g ai/ha) | Plant response rating: Mustard, Wild ([9]; 31 g ai/ha) | Plant response rating: Deadnettle ([10]; 31 g ai/ha) | Plant response rating: Russian Thistle ([13]; 62 g ai/ha) | Plant response rating: Russian Thistle ([13]; 125 g ai/ha) | Plant response rating: Pigweed ([17]; 31 g ai/ha) | Plant response rating: Pigweed ([17]; 16 g ai/ha)
60: Plant response rating: Field Poppy ([14]; 125 g ai/ha)
70: Plant response rating: Kochia (kochia (Kochia scoparia); 31 g ai/ha)
40: Plant response rating: Field Poppy ([14]; 62 g ai/ha) | Plant response rating: Barley, Winter ([15]; 125 g ai/ha) | Plant response rating: Bromegrass, Downy ([18]; 125 g ai/ha)

COc1ccc(-n2c(-c3ccccc3)ncc(C(=O)C3=C(O)CCCC3=O)c2=O)cc1 [Compound 4, 5-[(2-hydroxy-6-oxo-cyclohexen-1-yl)carbonyl]-3-(4-methoxyphenyl)-2-phenyl-4(3H)-pyrimidinone]
10: Plant response rating: Ryegrass, Italian ([12]; 31 g ai/ha) | Plant response rating: Barley, Spring ([16]; 31 g ai/ha)
0: Plant response rating: Canarygrass ([11]; 31 g ai/ha)
40: Plant response rating: Field Violet ([5]; 31 g ai/ha) | Plant response rating: Blackgrass ([6]; 125 g ai/ha) | Plant response rating: Bromegrass, Downy ([18]; 125 g ai/ha)
15: Plant response rating: Ryegrass, Italian ([12]; 125 g ai/ha) | Plant response rating: Barley, Spring ([16]; 125 g ai/ha)
20: Plant response rating: Blackgrass ([6]; 31 g ai/ha) | Plant response rating: Oat, Wild (wild oat (Avena fatua); 31 g ai/ha)
95: Plant response rating: Radish, Wild ([2]; 125 g ai/ha) | Plant response rating: Kochia (kochia (Kochia scoparia); 125 g ai/ha) | Plant response rating: Foxtail, Green ([3]; 125 g ai/ha) | Plant response rating: Russian Thistle ([13]; 125 g ai/ha) | Plant response rating: Pigweed ([17]; 31 g ai/ha)
98: Plant response rating: Chickweed ([7]; 31 g ai/ha) | Plant response rating: Mustard, Wild ([9]; 31 g ai/ha) | Plant response rating: Deadnettle ([10]; 31 g ai/ha)
50: Plant response rating: Bluegrass ([4]; 125 g ai/ha) | Plant response rating: Oat, Wild (wild oat (Avena fatua); 125 g ai/ha) | Plant response rating: Field Poppy ([14]; 125 g ai/ha)
90: Plant response rating: Oilseed Rape ([1]; 31 g ai/ha) | Plant response rating: Kochia (kochia (Kochia scoparia); 31 g ai/ha) | Plant response rating: Galium ([8]; 125 g ai/ha) | Plant response rating: Canarygrass ([11]; 125 g ai/ha)
80: Plant response rating: Radish, Wild ([2]; 31 g ai/ha)
100: Plant response rating: Oilseed Rape ([1]; 125 g ai/ha) | Plant response rating: Chickweed ([7]; 125 g ai/ha) | Plant response rating: Mustard, Wild ([9]; 125 g ai/ha) | Plant response rating: Deadnettle ([10]; 125 g ai/ha) | Plant response rating: Pigweed ([17]; 125 g ai/ha)
30: Plant response rating: Field Poppy ([14]; 31 g ai/ha)
35: Plant response rating: Bluegrass ([4]; 31 g ai/ha) | Plant response rating: Barley, Winter ([15]; 125 g ai/ha) | Plant response rating: Bromegrass, Downy ([18]; 31 g ai/ha)
5: Plant response rating: Barley, Winter ([15]; 31 g ai/ha)
70: Plant response rating: Foxtail, Green ([3]; 31 g ai/ha) | Plant response rating: Russian Thistle ([13]; 31 g ai/ha)
60: Plant response rating: Field Violet ([5]; 125 g ai/ha)
65: Plant response rating: Galium ([8]; 31 g ai/ha)
